Test results published in patent US8575338B2, “Pyrimidine, pyridine and triazine derivatives as maxi-K channel openers” (Mitsubishi Tanabe Pharma Corporation, priority 2008, dated 2013).

target: T1, human BKαβ1 channels (Homo sapiens, UniProt Q12791); assay: BK current in CHO cells expressing human BKαβ1 (PatchXpress whole-cell patch clamp), EC100; format: cell-based; conditions: drug concentration causing 100% increase of BK current
T1 construct: expressed in transfected cells; host or cells: CHO cells (G418 and hygromycin selection)
T1 sequence (Q12791 whole entry): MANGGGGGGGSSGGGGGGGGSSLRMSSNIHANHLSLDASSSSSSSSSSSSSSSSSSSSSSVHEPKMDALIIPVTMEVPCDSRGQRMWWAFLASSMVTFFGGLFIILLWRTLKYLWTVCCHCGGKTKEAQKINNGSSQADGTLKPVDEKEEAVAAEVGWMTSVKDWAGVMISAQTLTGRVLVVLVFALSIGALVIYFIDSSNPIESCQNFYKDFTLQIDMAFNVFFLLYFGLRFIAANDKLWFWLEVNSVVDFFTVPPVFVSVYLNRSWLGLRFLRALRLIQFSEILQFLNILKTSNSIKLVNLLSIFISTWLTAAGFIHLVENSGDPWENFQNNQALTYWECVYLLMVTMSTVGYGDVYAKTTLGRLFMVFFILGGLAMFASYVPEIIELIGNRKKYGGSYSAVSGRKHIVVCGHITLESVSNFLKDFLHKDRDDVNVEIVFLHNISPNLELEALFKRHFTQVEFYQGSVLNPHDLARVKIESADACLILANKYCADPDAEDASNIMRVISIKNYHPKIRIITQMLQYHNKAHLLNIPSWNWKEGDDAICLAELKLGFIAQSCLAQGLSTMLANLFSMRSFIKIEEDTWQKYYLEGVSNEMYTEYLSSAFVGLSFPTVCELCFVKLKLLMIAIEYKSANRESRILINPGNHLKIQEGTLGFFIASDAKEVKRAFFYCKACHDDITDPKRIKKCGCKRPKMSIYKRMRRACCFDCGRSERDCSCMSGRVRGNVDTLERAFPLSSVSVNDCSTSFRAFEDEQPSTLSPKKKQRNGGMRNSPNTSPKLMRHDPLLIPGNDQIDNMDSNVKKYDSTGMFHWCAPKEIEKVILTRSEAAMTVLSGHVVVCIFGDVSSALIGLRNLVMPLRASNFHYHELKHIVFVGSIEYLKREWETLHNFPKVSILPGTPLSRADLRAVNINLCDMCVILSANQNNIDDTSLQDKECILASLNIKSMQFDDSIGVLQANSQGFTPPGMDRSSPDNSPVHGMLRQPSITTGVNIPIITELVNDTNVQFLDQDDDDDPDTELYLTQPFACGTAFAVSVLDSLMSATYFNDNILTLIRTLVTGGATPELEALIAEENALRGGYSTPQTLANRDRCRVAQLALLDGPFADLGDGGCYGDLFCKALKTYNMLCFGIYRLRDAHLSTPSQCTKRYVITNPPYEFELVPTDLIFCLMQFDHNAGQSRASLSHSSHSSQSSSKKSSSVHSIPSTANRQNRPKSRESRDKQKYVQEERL
T1 sequence (Q16558 whole entry partner): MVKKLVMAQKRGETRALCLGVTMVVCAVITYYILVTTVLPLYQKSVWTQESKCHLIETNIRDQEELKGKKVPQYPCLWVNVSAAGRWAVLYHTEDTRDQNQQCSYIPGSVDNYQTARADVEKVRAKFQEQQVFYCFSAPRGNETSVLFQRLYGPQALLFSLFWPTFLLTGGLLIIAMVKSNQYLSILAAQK
Method: Methods for Testing Compounds on Human BKαβ1 Channels Expressed Cho Cells
CHO cells expressing human BKαβ1 were cultured in T75 or 6 well cell culture cluster. Medium: DMEM/F12+10% FBS+0.5 mg/mL G418/genetecin+0.1 mg/mL Hygromycin. Split cells every 3-4 days at 80-90% confluence. Use cells for experiments 60-72 hrs after re-passage and at ˜90% confluence.
Trypsin solution (0.05% Trypsin+0.1% EDTA), Ca^2+ free PBS and culture medium were warmed to 37° C. Inspect the T75 flask for cell confluence. Remove culture medium and add warm Ca^2+ free PBS to wash cells. Remove Ca^2+ free PBS and add warm Trypsin solution. Put the T75 flask back to 37° C. incubator for about 4.5 minutes. Stop Trypsin activity by adding culture medium. Spin the cells down. Suspend cells in 120-160 μL external solution for BK current recording and use the cells as soon as possible.
PatchXpress Sealchip 16 electrodes (AVIVA Biosciences) and PatchXpress 7000A (Axon Instruments, Inc) were used for BK current recording. Flat bottom 1.5 mL glass vial (HiPep Laboratories) were used for containing external solutions (±compounds). The holes in the sealchip (equivalent to patch electrode) had resistance about 1.5 MΩ. Cell membrane capacitance was compensated and access resistance was also compensated by 40%. Voltage-clamp protocol: Holding voltage=0 mV. Record BK current during 200-ms steps between +80 to +120 mV in 10 mV increments and 2 sec inter-pulse interval. On-line digital leak subtraction was performed by a P/−4 procedure. After whole-cell configuration was established, 2 minute was used to optimize access resistance. Then the chamber was washed with control bath solution for 1 minute to remove excessive cells. Control bath solution was added with robotic pipette and control BK current was recorded after 1 minute equilibrium time. For each drug concentration, 45 μL drug solution was added three times with “suction before adding” mode which left old solution. For each drug addition, 1 minute equilibrium time was given. BK current was measured at each drug concentrations (usually within 3.5 minutes after first drug addition). Calculate % change of BK current at the voltage step when the control BK current first exceeding 200 pA. If the control BK current was less than 200 pA at 120 mV, the cell was not used. % changes were calculated as 100*(Id−Ic)/Ic, where Id was the current amplitude in the presence of drug and Ic was the control current amplitude.
EC100 was defined as the drug concentration causing 100% increase of BK current calculated by the method described above. EC100 was determined by the data points just below and above 100%. % Increase of BK current was plotted against log [drug concentration]. A straight line connected two data points flanking 100%. From this straight line, the concentration corresponding to 100% increase of BK current was determined as EC100.
Compounds were dissolved in DMSO to make 10 mM stock solutions. Subsequent dilutions were made with external solution. The testing drug concentrations were 0.1, 0.3, 1, 3 and 10 μM depending on the potency of compounds. The highest DMSO concentration was 0.1%. External solution (in mM): 140 NaCl, 4 KCl, 1 MgCl2, 2 CaCl2, 10 Glucose, 10 HEPES; pH=7.4 with NaOH. Internal solution (in mM): 140 KCl, 5 EGTA, 1 MgCl2, 5 MgATP, 0.2 CaCl2, 5 HEPES; pH=7.2 with KOH.

Row | EC100 [µM] | Compound
1 | 0.14 | Cc1cc(C(F)(F)F)ccc1-c1cc(OC2(C(=O)O)CC2)nc(-c2ccc(F)cc2)n1 [Example 905]
2 | 0.1 | COCc1cc(Cl)ccc1-c1cc(OC2(C(=O)O)CC2)nc(-c2ccc(Cl)cc2)n1 [Example 921]
3 | 0.1 | Cc1c(OC2(C(=O)[O-])CC2)nc(-c2ccc(F)cc2)nc1-c1ccc(Cl)s1.[Na+] [Example 1007]
4 | 0.34 | Cc1c(OC2(C(=O)O)CC2)nc(-c2ccc(Cl)cc2)nc1-c1ccc(F)cc1 [Example 1015]
5 | 0.04 | Cc1ccc(C(F)(F)F)cc1-c1nc(OC2(C(=O)[O-])CC2)nc(-c2ccc(Cl)cc2)n1.[Na+] [Example 1093]
6 | 0.3 | O=C([O-])C1(Oc2cc(N3CCc4ccc(F)cc4C3)nc(-c3ccc(Cl)cc3)n2)CC1.[Na+] [Example 1095]
7 | 0.11 | CN(Cc1cccc(F)c1)c1cc(OC2(C(=O)[O-])CC2)nc(-c2ccc(F)cc2)n1.[Na+] [Example 1098]
8 | 0.36 | O=C([O-])C1(Oc2cc(N3CCc4cc(F)ccc43)nc(-c3ccc(F)cc3)n2)CC1.[Na+] [Example 1108]
9 | 0.41 | CCCOC1CCN(c2nc(-c3ccc(Cl)cc3)nc(OC3(C(=O)O)CC3)c2C)CC1 [Example 1114]
10 | 1.31 | CCOCC1CCN(c2nc(-c3ccc(Cl)cc3)nc(OC3(C(=O)O)CC3)c2C)CC1 [Example 1116]
11 | 0.42 | Cc1c(OC2(C(=O)O)CC2)nc(-c2ccc(Cl)cc2)nc1N1CCC(OCC2CC2)CC1 [Example 1118]
12 | 0.95 | COCCC1CCN(c2nc(-c3ccc(F)cc3)nc(OC3(C(=O)O)CC3)c2C)CC1 [Example 1123]
13 | 0.23 | CCOCC1CCN(c2nc(-c3ccc(Cl)cc3)nc(OC3(C(=O)[O-])CC3)c2F)CC1.[Na+] [Example 1131]
14 | 1.03 | CC(C)COC1CCN(c2nc(OC3(C(=O)O)CC3)cc(-c3ccc(Cl)cc3)n2)CC1 [Example 1182]
15 | 0.2 | O=C([O-])C1(Oc2cc(-c3ccc(Cl)s3)nc(N3CCc4ccc(F)cc4C3)n2)CC1.[Na+] [Example 1202]
16 | 0.96 | COCCC1CCN(c2nc(OC3(C(=O)O)CC3)cc(-c3cc(C)c(Cl)s3)n2)CC1 [Example 1208]
17 | 0.54 | CCOC1CCN(c2nc(OC3(C(=O)O)CC3)cc(-c3cc(Cl)c(Cl)s3)n2)CC1 [Example 1216]

More lines, now with the values behind:

Row | Compound | EC100 [µM]
18 | CCOc1ccc(-c2cc(OC3(C(=O)O)CC3)nc(-c3ccc(F)cc3)n2)c(C)c1 [Example 897] | 0.62
19 | COc1ccc(Cl)c(-c2cc(OC3(C(=O)O)CC3)nc(-c3ccc(F)cc3)n2)c1 [Example 900] | 0.36
20 | Cc1ccc(C(F)(F)F)cc1-c1cc(OC2(C(=O)O)CC2)nc(-c2ccc(F)cc2)n1 [Example 906] | 0.15
21 | N#Cc1cc(Cl)ccc1-c1cc(OC2(C(=O)O)CC2)nc(-c2ccc(Cl)cc2)n1 [Example 918] | 0.2
22 | CCOc1cc(F)cc(-c2nc(-c3ccc(F)cc3)nc(OC3(C(=O)[O-])CC3)c2C)c1.[Na+] [Example 978] | 0.12
23 | COc1ccc(-c2nc(-c3ccc(F)cc3)nc(OC3(C(=O)[O-])CC3)c2C)cc1Cl.[Na+] [Example 982] | 0.1
24 | COc1cc(-c2nc(-c3ccc(F)cc3)nc(OC3(C(=O)[O-])CC3)c2C)ccc1Cl.[Na+] [Example 993] | 0.13
25 | COc1cc(-c2nc(-c3ccc(F)cc3)nc(OC3(C(=O)[O-])CC3)c2C)ccc1F.[Na+] [Example 996] | 0.58
26 | Cc1cc(-c2nc(-c3ccc(F)cc3)nc(OC3(C(=O)[O-])CC3)c2C)ccc1F.[Na+] [Example 999] | 0.14
27 | Cc1cc(F)cc(-c2nc(-c3ccc(F)cc3)nc(OC3(C(=O)[O-])CC3)c2C)c1.[Na+] [Example 1000] | 0.14
28 | COc1ccc(-c2nc(-c3ccc(Cl)cc3)nc(OC3(C(=O)O)CC3)c2C)cc1 [Example 1016] | 0.5
29 | CCOCc1ccc(-c2cc(OC3(C(=O)O)CC3)nc(-c3ccc(Cl)cc3)n2)c(C)c1 [Example 1034] | 0.17
30 | Cc1cc(F)ccc1-c1cc(OC2(C(=O)O)CC2)nc(-c2ccc(F)cc2)c1 [Example 1087] | 0.36
31 | Cc1cc(Cl)ccc1-c1nc(OC2(C(=O)[O-])CC2)nc(-c2ccc(Cl)cc2)n1.[Na+] [Example 1088] | 0.14
32 | Cc1cc(C(F)(F)F)ccc1-c1nc(OC2(C(=O)O)CC2)nc(-c2ccc(Cl)cc2)n1 [Example 1092] | 0.02
33 | Cc1cc(OC(F)(F)F)ccc1-c1nc(OC2(C(=O)[O-])CC2)nc(-c2ccc(Cl)cc2)n1.[Na+] [Example 1094] | 0.03
34 | O=C([O-])C1(Oc2cc(N3CCc4cc(F)ccc4C3)nc(-c3ccc(Cl)cc3)n2)CC1.[Na+] [Example 1096] | 0.11
35 | COc1ccc(CN(C)c2cc(OC3(C(=O)O)CC3)nc(-c3ccc(F)cc3)n2)cc1 [Example 1100] | 0.38

Row | Compound | EC100 [µM]
36 | O=C([O-])C1(Oc2cc(N3CCc4ccc(F)cc4C3)nc(-c3ccc(F)cc3)n2)CC1.[Na+] [Example 1109] | 0.07
37 | O=C([O-])C1(Oc2cc(N3CCc4ccc(Cl)cc4C3)nc(-c3ccc(F)cc3)n2)CC1.[Na+] [Example 1111] | 0.12
38 | COCC1CCN(c2nc(-c3ccc(Cl)cc3)nc(OC3(C(=O)O)CC3)c2C)CC1 [Example 1115] | 1.74
39 | CCCCOC1CCN(c2nc(-c3ccc(Cl)cc3)nc(OC3(C(=O)[O-])CC3)c2C)CC1.[Na+] [Example 1119] | 0.73
40 | CCOCC1CCN(c2nc(-c3ccc(F)cc3)nc(OC3(C(=O)O)CC3)c2C)CC1 [Example 1122] | 0.9
41 | CCCCOC1CCN(c2nc(-c3ccc(F)cc3)nc(OC3(C(=O)[O-])CC3)c2C)CC1.[Na+] [Example 1125] | 0.5
42 | COCCCC1CCN(c2nc(-c3ccc(F)cc3)nc(OC3(C(=O)[O-])CC3)c2C)CC1.[Na+] [Example 1126] | 0.77
43 | CCCOC1CCN(c2nc(-c3ccc(Cl)cc3)nc(OC3(C(=O)[O-])CC3)c2F)CC1.[Na+] [Example 1129] | 0.61
44 | COCCC1CCN(c2nc(-c3ccc(Cl)cc3)nc(OC3(C(=O)[O-])CC3)c2F)CC1.[Na+] [Example 1132] | 0.41
45 | CCCOCC1CCN(c2nc(-c3ccc(Cl)cc3)nc(OC3(C(=O)[O-])CC3)c2F)CC1.[Na+] [Example 1133] | 1.29
46 | CCCOC1CCN(c2nc(OC3(C(=O)O)CC3)cc(-c3ccc(C)c(Cl)c3)n2)CC1 [Example 1148] | 0.13
47 | CCCOC1CCN(c2nc(OC3(C(=O)O)CC3)cc(-c3ccc(F)c(C(F)(F)F)c3)n2)CC1 [Example 1153] | 0.34
48 | O=C(O)C1(Oc2cc(-c3ccc(Cl)cc3)nc(N3CCc4ccc(F)cc4C3)n2)CC1 [Example 1191] | 0.02
49 | O=C(O)C1(Oc2cc(-c3ccc(Cl)cc3)nc(N3CCc4cc(F)ccc4C3)n2)CC1 [Example 1192] | 0.04
50 | CCOCC1CCN(c2nc(OC3(C(=O)[O-])CC3)cc(-c3ccc(Cl)s3)n2)CC1.[Na+] [Example 1197] | 0.15
51 | O=C(O)C1(Oc2cc(-c3ccc(Cl)s3)nc(N3CCc4cc(F)ccc4C3)n2)CC1 [Example 1203] | 0.01
52 | COCCCC1CCN(c2nc(OC3(C(=O)[O-])CC3)cc(-c3cc(C)c(Cl)s3)n2)CC1.[Na+] [Example 1215] | 0.39
